Patent US6720342B2, “Heterocyclic compounds and their preparation and use” (Novo Nordisk A/S, priority 1996, dated 2004)
Counter-ions that a name gives are not always drawn.

What was measured:
[1] = biological target: muscarinic acetylcholine receptors; assay: Inhibition of specific binding of 3H-Oxotremorine-M (3H-Oxo) to rat cortex membranes; conditions: rat cortex homogenate, 1.0 nM 3H-Oxotremorine, 30 min at 25° C.
Source text: The pharmacological properties of the compounds of the invention can be illustrated by determining their capability to inhibit the specific binding of ^3H-Oxotremorine-M (^3H-Oxo). Birdsdall N. J. M., Hulme E. C., and Burgen A. S. V. (1980). “The Character of Muscarinic Receptors in Different Regions of the Rat Brain”. Proc. Roy. Soc. London (Series B) 207, 1.
^3H-Oxo labels muscarinic receptor in the CNS (with a preference for agonist domains of the receptors). Three different sites are labelled by ^3H-Oxo. […] Using the present experimental conditions only the high and medium affinity sites are determined.
The inhibitory effects of compounds on ^3H-Oxo binding reflects the affinity for muscarinic acetylcholine receptors.
(§1) All preparations are performed at 0-4° C. unless otherwise indicated. Fresh cortex (0.1-1 g) from male Wistar rats (150-250 g) is homogenized for 5-10 s in 10 ml 20 mM Hepes pH: 7.4, with an Ultra-Turrax homogenizer. The homogenizer is rinsed with 10 ml of buffer and the combined suspension centrifuged for 15 min. at 40,000×g. The pellet is washed three times with buffer. In each step the pellet is homogenized as before in 2×10 ml of buffer and centrifuged for 10 min. at 40,000×g.
The final pellet is homogenized in 20 mM Hepes pH: 7.4 (100 ml per g of original tissue) and used for binding assay. Aliquots of 0.5 ml is added 25 μl of test solution and 25 μl of ^3H-Oxotremorine (1.0 nM, final concentration) mixed and incubated for 30 min. at 25° C. Non-specific binding is determined in triplicate using arecoline (1 μg/ml, final concentration) as the test substance. After incubation samples are added 5 ml of ice-cold buffer and poured directly onto Whatman GF/C glass fiber filters under suction and immediately washed 2 times with 5 ml of ice-cold buffer. The amount of radioactivity on the filters are determined by conventional liquid scintillation counting. Specific binding is total binding minus non specific binding.
Test substances are dissolved in 10 ml water (if necessary heated on a steambath for less than 5 min.) at a concentration of 2.2 mg/ml. 25-75% inhibition of specific binding must be obtained before calculation of IC50.
The test value will be given as IC50 (the concentration (nM) of the test substance which inhibits the specific binding of ^3H-Oxo by 50%).
(§2) IC50=(applied test substance concentration)×(Cx/Co−Cx)nM
(§3) where Co is specific binding in control assays and Cx is the specific binding in the test assay. (The calculations assume normal mass-action kinetics).

[2] = biological target: T1, muscarinic receptors (M1-site, pirenzepine sensitive site) (Rattus norvegicus, UniProt P08482); assay: Inhibition of 3H-PRZ (pirenzepine, [N-methyl-3H]) binding to rat cerebral cortex membranes; conditions: 1.0 nM 3H-Pirenzepine, 60 min at 20° C.
T1 construct: Fresh cortex (0.1-1 g) from male Wistar rats (150-200 g) is homogenized; from tissue; host or cells: rat (male Wistar) cerebral cortex membranes
T1 sequence (P08482 1-460): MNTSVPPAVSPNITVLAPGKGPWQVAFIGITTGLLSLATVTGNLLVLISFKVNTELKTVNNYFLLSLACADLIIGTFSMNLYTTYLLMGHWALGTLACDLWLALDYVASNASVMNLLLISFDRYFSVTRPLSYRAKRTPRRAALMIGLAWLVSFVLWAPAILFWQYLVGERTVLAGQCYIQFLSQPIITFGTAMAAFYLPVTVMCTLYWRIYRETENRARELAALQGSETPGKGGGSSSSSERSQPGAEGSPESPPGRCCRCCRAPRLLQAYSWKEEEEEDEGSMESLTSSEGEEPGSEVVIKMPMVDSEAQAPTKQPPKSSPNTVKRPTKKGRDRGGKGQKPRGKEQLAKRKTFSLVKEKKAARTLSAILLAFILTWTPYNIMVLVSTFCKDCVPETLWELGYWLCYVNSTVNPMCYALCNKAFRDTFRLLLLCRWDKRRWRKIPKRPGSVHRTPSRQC
Protocol: Furthermore the pharmacological properties of the compounds of the invention can also be illustrated by determining their capability to inhibit ^3H-PRZ (pirenzepine, [N-methyl-^3H]) binding to rat cerebral cortex membranes. Pirenzepine binds selectively to subtype of muscarinic receptors. Historically the type is named the M1-site, whereas pirenzepine sensitive site would be more appropriate. Although selective for M1-sites pirenzepine also interact with M2-sites.
as §1, with “rats (150-200” for “rats (150-250”, “5-10 s.” for “5-10 s”, “with 2×10” for “with 10”, “15 min” for “15 min.”, “in 3×10” for “in 2×10”, “10 min” for “10 min.”
The final pellet is homogenized in 20 mM Hepes pH: 7.4 (100 ml per g of original tissue) and used for binding assay. Aliquots of 0.5 ml is added 20 μl of test solution and 25 μl of ^3H-Pirenzepine (1.0 nM, final conc.), mixed and incubated for 60 min at 20° C. Non-specific binding is determined in triplicate using atropine (1 μg/ml, final conc.) as the test substance. After incubation samples are added 5 ml of ice-cold buffer and poured directly onto Whatman GF/C glass fiber filters under suction and immediately washed 2 times with 5 ml of ice-cold buffer. The amount of radioactivity on the filters are determined by conventional liquid scintillation counting. Specific binding is total binding minus non-specific binding.
Test substances are dissolved in 10 ml water, at a concentration of 0.22 mg/ml. 25-75% inhibition of specific binding must be obtained before calculation of IC50.
The test value will be given as IC50 (the concentration (nM) of the test substance which inhibits the specific binding of ^3H-PRZ by 50%).
as §2, §3

IC50 [1]	IC50 [2]	SMILES	melting point
		CCCSc1nsnc1OC1CN2CCC1C2 (stereo not drawn) (as salt: oxalate) [Compound 2, Endo 3-(3-propylthio-1,2,5-thiadiazol-4-yloxy)-1-azabicyclo[2.2.1]heptane, oxalate]	136 to 137 °C
		C(#Cc1ccccc1)COc1nsnc1OC1CN2CCC1C2 (stereo not drawn) (as salt: oxalate) [Compound 5, Endo 3-(3-[3-phenyl-2-propynyl-1-oxy]-1,2,5-thiadiazol-4-yloxy)-1-azabicyclo[2.2.1]heptane, oxalate]	158 to 159 °C
		COc1cccc(C#CCOc2nsnc2OC2CN3CCC2C3)c1 (stereo not drawn) (as salt: oxalate) [Compound 6, Endo 3-(3-[3-(3-methoxyphenyl)-2-propynyl-1-oxy]-1,2,5-thiadiazol-4-yloxy)-1-azabicyclo[2.2.1]heptane, oxalate]	142 to 143 °C
		CC(C)=CCOc1nsnc1OC1CN2CCC1C2 (stereo not drawn) (as salt: oxalate) [Compound 7, Endo 3-(3-[3-methyl-2-butenyl-1-oxy]-1,2,5-thiadiazol-4-yloxy)-1-azabicyclo[2.2.1]heptane, oxalate]	112 to 115 °C
		C(CC1CC1)Oc1nsnc1OC1CN2CCC1C2 (stereo not drawn) (as salt: oxalate) [Compound 8, Endo 3-(3-[2-cyclopropylethyl-1-oxy]-1,2,5-thiadiazol-4-yloxy)-1-azabicyclo[2.2.1]heptane, oxalate]	132 to 133 °C
		Fc1ccc(COc2nsnc2OC2CN3CCC2C3)cc1 (stereo not drawn) (as salt: oxalate) [Compound 9, Endo 3-(3-[4-fluorobenzyloxy]-1,2,5-thiadiazol-4-yloxy)-1-azabicyclo-[2.2.1]heptane, oxalate]	144 to 145 °C
		CC=CCOc1nsnc1OC1CN2CCC1C2 (stereo not drawn) (as salt: oxalate) [Compound 10, Endo 3-(3-[2-butenyl-1-oxy]-1,2,5-thiadiazol-4-yloxy)-1-azabicyclo[2.2.1]heptane, oxalate]	129 to 131 °C
		CC#CCOc1nsnc1OC1CN2CCC1C2 (stereo not drawn) (as salt: oxalate) [Compound 11, Endo 3-(3-[2-butynyl-1-oxy]-1,2,5-thiadiazol-4-yloxy)-1-azabicyclo[2.2.1]heptane, oxalate]	194 to 196 °C
		CSCCOc1nsnc1OC1CN2CCC1C2 (stereo not drawn) (as salt: oxalate) [Compound 12, Endo 3-(3-methylthioethoxy-1,2,5-thiadiazol-4-yloxy)-1-azabicyclo-[2.2.1]heptane, oxalate]	117 to 119 °C
		COCCOc1nsnc1OC1CN2CCC1C2 (stereo not drawn) (as salt: oxalate) [Compound 13, Endo 3-(3-methoxyethoxy-1,2,5-thiadiazol-4-yloxy)-1-azabicyclo[2.2.1]heptane, oxalate]	139 to 141 °C
302 nM	100 nM	CC(C#Cc1ccc(F)cc1)=CCOc1nsnc1OC1CN2CCC1C2 (stereo not drawn) [Compound 21, Endo (Z)-3-(3-(5-(4-fluorophenyl)-3-methyl-2-penten-4-yn-1-yloxy)-1,2,5-thiadiazol-4-yloxy)-1-azabicyclo[2.2.1]heptane]	
1.3 nM	3.9 nM	C(#Cc1ccoc1)COc1nsnc1OC1CN2CCC1C2 (stereo not drawn) [Compound 26, Endo 3-(3-(3-(3-furyl)-2-propyn-1-yloxy)-1,2,5-thiadiazol-4-yloxy)-1-azabicyclo[2.2.1]heptane, oxalate]	
8.3 nM	5.3 nM	FC(F)(F)C(F)(F)C(F)(F)COc1nsnc1OC1CN2CCC1C2 (stereo not drawn) [Compound 27, Endo 3-(3-(2,2,3,3,4,4,4-heptafluorobutyl-1-oxy)-1,2,5-thiadiazol-4-yloxy)-1-azabicyclo[2.2.1]heptane, oxalate]	
3.1 nM	9.1 nM	FC(F)(F)CCSc1nsnc1OC1CN2CCC1C2 (stereo not drawn) [Compound 29, Endo 3-(3-(3,3,3-trifluoropropylthio)-1,2,5-thiadiazol-4-yloxy)-1-azabicyclo-[2.2.1]heptane, oxalate]	
83 nM	16 nM	Fc1ccc(CSc2nsnc2OC2CN3CCC2C3)c(F)c1 (stereo not drawn) [Compound 33, Endo 3-(3-[2,4-difluorobenzylthio]-1,2,5-thiadiazol-4-yloxy)-1-azabicyclo-[2.2.1]heptane, oxalate]	
1 nM	4.7 nM	C(#Cc1ccsc1)COc1nsnc1OC1CN2CCC1C2 (stereo not drawn) [Compound 36, Endo 3-(3-[3-(3-thienyl)-2-propyn-1-yloxy]-1,2,5-thiadiazol-4-yloxy)-1-azabicyclo[2.2.1]heptane, oxalate]	
2.2 nM	8.7 nM	C(#Cc1cccs1)COc1nsnc1O[C@H]1CN2CC[C@@H]1C2 [Compound 37, Endo 3-(3-[3-(2-thienyl)-2-propyn-1-yloxy]-1,2,5-thiadiazol-4-yloxy)-1-azabicyclo[2.2.1]heptane, oxalate]	
105 nM	56 nM	COc1cccc(C#CC(Oc2nsnc2OC2CN3CCC2C3)C(C)C)c1 (stereo not drawn) [Compound 39, Endo 3-(3-[1-(3-methoxyphenyl)-4-methyl-1-pentyn-3-yloxy]-1,2,5-thiadiazol-4-yloxy)-1-azabicyclo[2.2.1]heptane, oxalate]	
1.8 nM	43 nM	FC(F)(F)COc1nsnc1OC1CN2CCC1C2 (stereo not drawn) [Compound 40, Endo 3-(3-[2,2,2-trifluoroethyl-1-oxy]-1,2,5-thiadiazol-4-yloxy)-1-azabicyclo[2.2.1]heptane, oxalate]	

SMILES	IC50 [1]	IC50 [2]	melting point
C(#Cc1cccnc1)COc1nsnc1OC1CN2CCC1C2 (stereo not drawn) [Compound 23, Endo 3-(3-(3-pyridyl)-2-propyn-1-yloxy)-1,2,5-thiadiazol-4-yloxy)-1-azabicyclo[2.2.1]heptane, dioxalate]	1.6 nM	13 nM	
C(#Cc1ccccn1)COc1nsnc1OC1CN2CCC1C2 (stereo not drawn) [Compound 25, Endo 3-(3-(2-pyridyl)-2-propyn-1-yloxy)-1,2,5-thiadiazol-4-yloxy)-1-azabicyclo[2.2.1]heptane, dioxalate]	1.7 nM	4.5 nM	
N#CCCSc1nsnc1OC1CN2CCC1C2 (stereo not drawn) [Compound 32, Endo 3-(3-[2-cyanoethylthio]-1,2,5-thiadiazol-4-yloxy)-1-azabicyclo-[2.2.1]heptane, oxalate]	3.1 nM	34 nM	
